Measurements: patent publication US20240423207A1, “PICOLINAMIDE COMPOUNDS WITH FUNGICIDAL ACTIVITY” (CORTEVA AGRISCIENCE LLC, priority 2014, published 2024)
Where two headings read alike, the source gives them in different places.

Experiments:
[1] = test system: Puccinia triticina; Synonym: Puccinia recondita f sp. tritici; assay: Wheat Brown Rust (PUCCRT) fungicidal activity on wheat seedlings; format: in vivo; settings: Low Volume, 121.5 g/H
In short: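 Yuma wheat seedlings (first leaf emerged) were sprayed to run-off with compound in acetone/water 1:9 (110 ppm Triton X-100), and P. triticina spores were inoculated before or after treatment. Plants were kept overnight in a 22 °C dark dew room at 100% RH, then moved to a 24 °C greenhouse; % control was based on first-leaf severity (0–100%) versus untreated plants.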

[2] = test system: Mycosphaerella graminicola; Anamorph: Septoria tritici; assay: Leaf Blotch of Wheat (SEPTTR) fungicidal activity on wheat seedlings; format: in vivo; settings: Zymoseptoria tritici, Low Volume, 121.5 g/H
In short: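 Compounds in acetone were diluted with nine volumes of water containing 110 ppm Triton X-100, or as EC formulations with 0.1% Trycol 5941 for track spray. They were sprayed on first-leaf Yuma wheat seedlings inoculated with S. tritici before or after treatment. Plants spent 1 day dark and 2–3 days lit at 100% RH, 20 °C. Severity (0–100%) was scored once untreated plants were fully diseased; control was computed relative to untreated plants.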

[3] = 24 h, 1 Day Protectant, read-out: PUCCRT 1DP disease control
[4] = 72 h, 3 Day Curative, read-out: PUCCRT 3DC disease control
[5] = 24 h, 1 Day Protectant, read-out: SEPTTR 1DP disease control
[6] = 72 h, 3 Day Curative, read-out: SEPTTR 3DC disease control

melting point [°C]	Structure (SMILES)	pest or weed control at 121.5 g/ha [1, 3] [%]	pest or weed control at 121.5 g/ha [1, 4] [%]	pest or weed control at 121.5 g/ha [2, 5] [%]	pest or weed control at 121.5 g/ha [2, 6] [%]
	COc1ccnc(C(=O)N[C@@H](C)C(=O)O[C@@H](C)C(c2ccc(Cl)c(C)c2)c2ccc(Cl)c(C)c2)c1OCOC(C)=O [Cmpd 203]	> 80	< 80	> 80	> 80
	COc1ccnc(C(=O)N[C@@H](C)C(=O)O[C@@H](C)[C@@H](c2ccccc2)c2ccc(F)cc2)c1OC(C)=O [Cmpd 204]	> 80	> 80	> 80	> 80
	COc1ccnc(C(=O)N[C@@H](C)C(=O)O[C@@H](C)C(c2ccc(Cl)c(C)c2)c2ccc(Cl)c(C)c2)c1OC(C)=O [Cmpd 206]	> 80	< 80	> 80	> 80
52 to 65	COc1ccnc(C(=O)N[C@@H](C)C(=O)O[C@@H](C)C(c2ccc(F)cc2)c2ccc(F)cc2)c1OC(=O)C(C)(C)C [Cmpd 207]			> 80	> 80
	COc1ccnc(C(=O)N[C@@H](C)C(=O)O[C@@H](C)C(c2ccc(F)cc2)c2ccc(F)cc2)c1OC(=O)C(C)C [Cmpd 208]	> 80	< 80	> 80	> 80
	COCCC(=O)Oc1c(OC)ccnc1C(=O)N[C@@H](C)C(=O)O[C@@H](C)C(c1ccc(F)cc1)c1ccc(F)cc1 [Cmpd 209]	> 80	< 80	> 80	> 80
	COc1ccnc(C(=O)N[C@@H](C)C(=O)O[C@@H](C)C(c2ccc(F)cc2)c2ccc(F)cc2)c1OC(=O)C1CC1 [Cmpd 210]	> 80	< 80	> 80	> 80
	COc1ccnc(C(=O)N[C@@H](C)C(=O)O[C@@H](C)C(c2ccc(F)cc2)c2ccc(F)cc2)c1OCOC(=O)C(C)C [Cmpd 211]	> 80	> 80	> 80	> 80
	CCOCC(=O)OCOc1c(OC)ccnc1C(=O)N[C@@H](C)C(=O)O[C@@H](C)C(c1ccc(F)cc1)c1ccc(F)cc1 [Cmpd 212]	> 80	> 80	> 80	> 80
	CCCCC(=O)Oc1c(OC)ccnc1C(=O)N[C@@H](C)C(=O)O[C@@H](C)C(c1ccc(F)cc1)c1ccc(F)cc1 [Cmpd 213]	< 80	< 80	> 80	> 80
	COc1ccnc(C(=O)N[C@@H](C)C(=O)O[C@@H](C)C(c2ccc(F)c(F)c2)c2ccc(F)c(F)c2)c1OC(C)=O [Cmpd 215]	> 80		> 80	> 80
	COc1ccnc(C(=O)N[C@@H](C)C(=O)O[C@@H](C)C(c2ccc(F)c(Cl)c2)c2ccc(F)c(Cl)c2)c1OC(C)=O [Cmpd 216]	> 80	< 80	> 80	< 80
	COc1ccnc(C(=O)N[C@@H](C)C(=O)O[C@@H](C)C(c2ccc(F)c(C)c2)c2ccc(F)c(C)c2)c1OC(C)=O [Cmpd 217]	> 80	< 80	> 80	> 80
	COc1ccnc(C(=O)N[C@@H](C)C(=O)O[C@@H](C)C(c2ccc(F)c(F)c2)c2ccc(F)c(F)c2)c1OCOC(C)=O [Cmpd 218]	> 80	< 80	> 80	> 80
	COc1ccnc(C(=O)N[C@@H](C)C(=O)O[C@@H](C)C(c2ccc(F)c(Cl)c2)c2ccc(F)c(Cl)c2)c1OCOC(C)=O [Cmpd 219]	> 80		> 80	> 80
	COc1ccnc(C(=O)N[C@@H](C)C(=O)O[C@@H](C)C(c2ccc(F)c(C)c2)c2ccc(F)c(C)c2)c1OCOC(C)=O [Cmpd 220]	> 80	< 80	> 80	> 80
